This passage reports IC50 results from patent US6420375B1, “Fused ring compounds, process for producing the same and use thereof” (Takeda Chemical Industries, Ltd., priority 1997, dated 2002).

pIC50: −log10 of the molar value.

In the experiment the target is T1, rat steroid C17-20-lyase (Rattus norvegicus, UniProt P11715).
T1 construct: testicular microsomes were prepared by a series of centrifugation; from tissue; host or cells: testicular microsomes from 13-week old male SD rats
T1 sequence (P11715 1-507): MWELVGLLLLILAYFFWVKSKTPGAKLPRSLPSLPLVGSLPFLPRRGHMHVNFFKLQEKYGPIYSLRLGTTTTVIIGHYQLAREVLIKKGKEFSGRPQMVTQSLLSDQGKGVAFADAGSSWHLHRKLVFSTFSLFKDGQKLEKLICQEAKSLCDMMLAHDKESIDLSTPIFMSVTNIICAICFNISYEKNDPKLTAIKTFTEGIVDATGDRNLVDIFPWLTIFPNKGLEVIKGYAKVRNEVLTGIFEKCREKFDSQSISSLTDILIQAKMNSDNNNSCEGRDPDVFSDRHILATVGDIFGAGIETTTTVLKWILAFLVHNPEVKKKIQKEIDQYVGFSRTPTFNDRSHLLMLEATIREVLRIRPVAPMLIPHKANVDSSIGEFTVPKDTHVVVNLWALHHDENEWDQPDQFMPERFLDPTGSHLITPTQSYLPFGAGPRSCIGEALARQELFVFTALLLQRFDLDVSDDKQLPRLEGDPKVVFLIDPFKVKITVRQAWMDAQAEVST
Put plainly: Assay of inhibitory activity on rat steroid C17-20-lyase in vitro. The settings on record: testicular microsomes of male SD rats; 10 nM [1,2-3H]-17α-hydroxyprogesterone, NADPH; 7 min at 37° C.; concentration reducing products (testosterone and androstenedione) by 50%. The experiment is classed as biochemical. The method, then:
Assay of inhibitory activity on rat steroid C17-20-lyase in vitro
Inhibitory activity was determined according to the method described in The Prostate, vol.26, 140-150(1995) with some modifications.
Testes excised from 13-week old, male SD rats were homogenized, and testicular microsomes were prepared by a series of centrifugation. The microsome protein (7 μg/10 μl) was added to 10 μl of 100 mM phosphate buffer (pH 7.4) in which 10 nM (final concentration) [1,2-^3H]-17α-hydroxyprogesterone, NADPH, and test compounds were dissolved. The reaction mixture was incubated for 7 min at 37° C., terminated by addition of 40 μl of Ethyl acetate, and briefly centrifuged. The substrate and the products (testosterone and androstenedione) in the upper phase were separated by silica gel thin layer chromatography. Detection of the spots and measurement of the radioactivity were performed by a BAS 2000 Bioimage analyzer. The concentration of the test compounds necessary to reduce the concentration of the products by 50% (The concentration in the control group in which no test compound was added was taken as 100%) was calculated, and shown in Table 1.

With `C(=C\c1ccc2ccccc2c1)/Cn1ccnc1`, the negative logarithm of the IC50 (pIC50) was 7.59.

For the compound `C/C(=C\Cn1ccnc1)c1ccc2ccccc2c1`, the pIC50 is 7.89.

As for `C/C(=C\c1ccc2ccccc2c1)Cn1ccnc1`, the pIC50 is 7.70.

On to `C(=C\c1ccc2ccccc2c1)/Cc1cccnc1`, for which the pIC50 was 7.00.

`C(=C\c1ccc2c(c1)CCCC2)/c1ccncc1` showed a pIC50 of 6.72.

The compound `C/C(=C\Cn1ccnc1)c1ccc2c(c1)CCCC2` had a pIC50 of 7.55.

As a reminder, the pIC50 is the IC50 on a negative log10 scale, so that one unit is a factor of ten. The low end stands for a high IC50, the high end for a low IC50.
